# Data as given in US20240390434A1, “PROBIOTIC ENHANCERS AND USES THEREOF” (Blis Technologies Limited, priority 2021, published 2024).
# Columns and labels:
# salB = assay type: cell-based, S. salivarius K12; settings: K12; 2.5% w/w sugar in CABCa agar
# Protocol: Method: CABCa agar plates were prepared either with or without 2.5% w/w raffinose, 0.5% w/w galactose, combined 2.5% w/w raffinose and 0.5% w/w galactose, 0.5% w/w glucose or 2.5% w/w glucose by the addition of 0.5% (w/v) calcium carbonate to solid CAB agar in bottles and then melted by autoclaving at 110° C. for 10 mins. Once cooled, filter sterilised solutions of the saccharides or distilled water were added and mixed and then 20 ml pipetted into petri dishes.
# A S. salivarius K12 raw ingredient suspension was prepared in PBS containing approx. 1×10^8cfu/ml. 100p of this suspension was spread evenly onto control and test agar plates. Plates were incubated at 37° C. with 5% CO2 for approx, 19 hrs.
# Bacterial growth from each plate was collected using a sterile cotton swab and resuspended into 1 ml PBS in a screw capped tube. The bacterial cells were then pelleted by centrifugation at 13,000 rpm for 1 minute at 4° C. The supernatant was removed, and the cell pellet was resuspended in 1 ml of TRIzol reagent. The bacterial cell suspension was transferred into a 2 ml screw-capped tube containing 0.1 mm Zirconia/silicon beads. […]
# The cDNA samples from K12 raw ingredient grown on the CABCa control plates and CABCa supplemented with the various saccharides were then analysed by qPCR for the levels of gene expression of the following genes: salA, salB, salQ and ureC. […]
# S. constellatus T29 = assay: Deferred antagonism assay, producer S. salivarius M18; assay type: cell-based; settings: for Zone of inhibition S. constellatus T29: M18
# Protocol: (§1) 1-2 producer strain colonies were transferred from a stock plate into 900 μL of suspension solution using a fresh cotton swab. Following this, suspensions were vortexed, and a sample was inoculated onto solid culture media using a fresh cotton swab. The inoculation was a streak that runs diametrically across the agar plate in a 1.5 cm wide strip. The plate was then incubated. Following incubation all visible colonies were removed by swabbing them from the agar surface. The plates were then treated with chloroform by dispensing 2 ml of chloroform onto 4 cm×4 cm piece of cloth and sealing the inverted agar plate on top for 30 minutes. The plates were then air dried for 30 minutes following chloroforming. 1-2 indicator strain colonies were then transferred from a stock plate into complementary suspension solution. The suspensions were then vortexed, and a sample was inoculated onto the same agar surface. These samples were streaked in a perpendicular direction to the initial producer streak.
# (§2) Each indicator streak was prepared with fresh a suspension containing cells from a corresponding stock plate containing the indicator strain of interest. Indicator strains suspension samples were transferred using a fresh cotton swab. Results were measured by qualitatively reviewing the subsequent (if any) sizes of the zones of inhibition (ZOI) of indicator strain colony growth. A positive result is when there is a distinctive reduction or complete inhibition of indicator colony growth on the culture medium.
# (§3) CABCa agar plates containing various concentrations of saccharide were prepared according to the methods described in Method 1. Producer strains were transferred from stock agar plates into 900 μL THB using a fresh cotton swab. A plastic spread plater was cut to approximately 1.2 cm width and then dipped into ethanol and left to air dry to ensure sterility. A 100 μL sample of the producer strain suspension was then dispensed onto the agar surface in a straight line running diametrically across the agar surface in (approximately) 20 μL spots. The spots were spaced approximately 1.5 cm apart from each other. The plastic spreader was then used to evenly distribute the spots across the agar surface in a 1.5 cm wide strip. This step was taken to ensure an even producer streak was inoculated onto the agar surface and provided an approximate measure of the initial inoculum concentration. Separate plastic spreaders were used for samples containing different producer strains. The samples were left to soak into the agar surface until there was no visible liquid remaining on the agar surface (approximately 20 minutes). Following producer streak preparations, the deferred antagonism assay protocol was followed as per Method 2. Results were recorded by measuring the size of the zone of inhibition (ZOI) in mm.
# (§4) A dose response assay was carried out according to method 3 above, except a 1.2 cm streak was used. For the individual saccharide testing the pH of the producer streak was adjusted after the growth of producer to change the acidic conditions.
# (§5) A deferred antagonism assay was conducted using K12 or M18 raw ingredient suspended in Todd Hewitt broth (THB). This was spread as a 1.2 cm streak containing approximately 1-2×10^6 cfu down the middle of a CABCa control or CABCa galactose supplemented test plate. After 18 hrs growth at 37° C. with 5% CO2, bacterial growth was removed, and the pH of the agar in the initial streak was measured and adjusted to a pH of 6.5-7.5 using 0.5M sodium carbonate pH11 before sterilizing the agar surface using chloroform vapor. Bacterial test strains were suspended in i-THB before being swabbed across the plates perpendicular to the initial streak. Plates were incubated for a further 18 hrs incubation at 37° C. with 5% CO2 before measuring (mm) any zones of inhibition for each test strain, […]
# [1] = system: S. saprophyticus ATCC 15305; assay: as above; assay type: cell-based; settings: for Zone of inhibition S. saprophyticus ATCC 15305: M18
# Protocol: as §1, §2, §3, §4, §5
# S. aureus A222 = assay: as above; assay type: cell-based; settings: for Zone of inhibition S. aureus A222: M18
# Protocol: as §1, §2, §3, §4, §5
# S. pneumoniae D39 = assay: as above; assay type: cell-based; settings: for Zone of inhibition S. pneumoniae D39: M18
# Protocol: as §1, §2, §3, §4, §5
# S. pyogenes 71-698 = assay: as above; assay type: cell-based; settings: for Zone of inhibition S. pyogenes 71-698: M18
# Protocol: as §1, §2, §3, §4, §5
# M. catarrhalis TW2 = assay: Dose response deferred antagonism assay, producer M18; assay type: cell-based; settings: 1.5% (w/v) raffinose
# [2] = 1.25, 2.5, 5% w/v raffinose added
smiles,measurement,setting,value
"OC[C@H]1O[C@H](OC[C@H]2O[C@H](O[C@]3(CO)O[C@H](CO)[C@@H](O)[C@@H]3O)[C@H](O)[C@@H](O)[C@@H]2O)[C@H](O)[C@@H](O)[C@H]1O [Raffinose, D-(+) Raffinose pentahydrate]",increase in gene expression of salB relative to no sugar control,salB,241 fold
same,sensitivity of S. constellatus T-29 to M18,S. constellatus T29; [2],sensitive
same,Zone of inhibition S. constellatus T29,S. constellatus T29; Raffinose 1.7% wt,22 mm
same,Zone of inhibition S. constellatus T29,"S. constellatus T29; Raffinose 1.7% wt, pH adjusted",17 mm
same,Zone of inhibition S. constellatus T29,S. constellatus T29; Raffinose 2.5% wt,18 mm
same,Zone of inhibition S. constellatus T29,"S. constellatus T29; Raffinose 2.5% wt, pH adjusted",16 mm
same,Zone of inhibition S. constellatus T29,S. constellatus T29; Raffinose 3.3% wt,18 mm
same,Zone of inhibition S. constellatus T29,"S. constellatus T29; Raffinose 3.3% wt, pH adjusted",17 mm
same,Zone of inhibition S. constellatus T29,S. constellatus T29; Raffinose 5% wt,16 mm
same,Zone of inhibition S. constellatus T29,"S. constellatus T29; Raffinose 5% wt, pH adjusted",14 mm
same,Zone of inhibition S. constellatus T29,S. constellatus T29; Raffinose 10% wt,12 mm
same,Zone of inhibition S. constellatus T29,"S. constellatus T29; Raffinose 10% wt, pH adjusted",0 mm
same,sensitivity of S. saprophyticus ATCC 15305 to M18,[1]; [2],sensitive
same,Zone of inhibition S. saprophyticus ATCC 15305,[1]; Raffinose 1.7% wt,16 mm
same,Zone of inhibition S. saprophyticus ATCC 15305,"[1]; Raffinose 1.7% wt, pH adjusted",15 mm
same,Zone of inhibition S. saprophyticus ATCC 15305,[1]; Raffinose 2.5% wt,17 mm
same,Zone of inhibition S. saprophyticus ATCC 15305,"[1]; Raffinose 2.5% wt, pH adjusted",15 mm
same,Zone of inhibition S. saprophyticus ATCC 15305,[1]; Raffinose 3.3% wt,17 mm
same,Zone of inhibition S. saprophyticus ATCC 15305,"[1]; Raffinose 3.3% wt, pH adjusted",14 mm
same,Zone of inhibition S. saprophyticus ATCC 15305,[1]; Raffinose 5% wt,14 mm
same,Zone of inhibition S. saprophyticus ATCC 15305,"[1]; Raffinose 5% wt, pH adjusted",12 mm
same,Zone of inhibition S. saprophyticus ATCC 15305,[1]; Raffinose 10% wt,0 mm
same,Zone of inhibition S. saprophyticus ATCC 15305,"[1]; Raffinose 10% wt, pH adjusted",0 mm
same,sensitivity of S. aureus A222 to M18,S. aureus A222; [2],sensitive
same,Zone of inhibition S. aureus A222,S. aureus A222; Raffinose 1.7% wt,20 mm
same,Zone of inhibition S. aureus A222,"S. aureus A222; Raffinose 1.7% wt, pH adjusted",17 mm
same,Zone of inhibition S. aureus A222,S. aureus A222; Raffinose 2.5% wt,20 mm
same,Zone of inhibition S. aureus A222,"S. aureus A222; Raffinose 2.5% wt, pH adjusted",18 mm
same,Zone of inhibition S. aureus A222,S. aureus A222; Raffinose 3.3% wt,18 mm
same,Zone of inhibition S. aureus A222,"S. aureus A222; Raffinose 3.3% wt, pH adjusted",17 mm
same,Zone of inhibition S. aureus A222,S. aureus A222; Raffinose 5% wt,16 mm
same,Zone of inhibition S. aureus A222,"S. aureus A222; Raffinose 5% wt, pH adjusted",13 mm
same,Zone of inhibition S. aureus A222,S. aureus A222; Raffinose 10% wt,0 mm
same,Zone of inhibition S. aureus A222,"S. aureus A222; Raffinose 10% wt, pH adjusted",0 mm
same,inhibition by M18 of S. pneumoniae,S. pneumoniae D39; 0.5 to 10% w/v raffinose,increase in inhibition
same,Zone of inhibition S. pneumoniae D39,S. pneumoniae D39; Raffinose 1.7% wt,3 mm
same,Zone of inhibition S. pneumoniae D39,"S. pneumoniae D39; Raffinose 1.7% wt, pH adjusted",12 mm
same,Zone of inhibition S. pneumoniae D39,S. pneumoniae D39; Raffinose 2.5% wt,10 mm
same,Zone of inhibition S. pneumoniae D39,"S. pneumoniae D39; Raffinose 2.5% wt, pH adjusted",11 mm
same,Zone of inhibition S. pneumoniae D39,S. pneumoniae D39; Raffinose 3.3% wt,7 mm
same,Zone of inhibition S. pneumoniae D39,"S. pneumoniae D39; Raffinose 3.3% wt, pH adjusted",13 mm
same,Zone of inhibition S. pneumoniae D39,S. pneumoniae D39; Raffinose 5% wt,2 mm
same,Zone of inhibition S. pneumoniae D39,"S. pneumoniae D39; Raffinose 5% wt, pH adjusted",12 mm
same,Zone of inhibition S. pneumoniae D39,S. pneumoniae D39; Raffinose 10% wt,1 mm
same,Zone of inhibition S. pneumoniae D39,"S. pneumoniae D39; Raffinose 10% wt, pH adjusted",11 mm
same,inhibition by M18 of S. pyogenes,S. pyogenes 71-698; 0.5 to 10% w/v raffinose,increase in inhibition
same,Zone of inhibition S. pyogenes 71-698,"S. pyogenes 71-698; Raffinose 1.7% wt, pH adjusted",10 mm
same,Zone of inhibition S. pyogenes 71-698,S. pyogenes 71-698; Raffinose 2.5% wt,8 mm
same,Zone of inhibition S. pyogenes 71-698,"S. pyogenes 71-698; Raffinose 2.5% wt, pH adjusted",7 mm
same,Zone of inhibition S. pyogenes 71-698,S. pyogenes 71-698; Raffinose 3.3% wt,8 mm
same,Zone of inhibition S. pyogenes 71-698,"S. pyogenes 71-698; Raffinose 3.3% wt, pH adjusted",7 mm
same,Zone of inhibition S. pyogenes 71-698,S. pyogenes 71-698; Raffinose 5% wt,5 mm
same,Zone of inhibition S. pyogenes 71-698,"S. pyogenes 71-698; Raffinose 5% wt, pH adjusted",5 mm
same,Zone of inhibition S. pyogenes 71-698,S. pyogenes 71-698; Raffinose 10% wt,0 mm
same,Zone of inhibition S. pyogenes 71-698,"S. pyogenes 71-698; Raffinose 10% wt, pH adjusted",0 mm
same,change in zone of inhibition size M. catarrhalis TW2,M. catarrhalis TW2,31 mm
